In PubChem BioAssay (NCI):
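Test compounds were applied to cells in 96-well plates for 48 hours at 5 doses. Here, GI50 denotes the concentration required for 50% inhibition of growth. TGI: total growth inhibition.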

Experiments:
Assay in all cases: DTP human tumour cell line panel, 48 h
A549 NSCLC = tested on: A549 NSCLC
CCRF-CEM leukemia = tested on: CCRF-CEM leukemia
HCT-116 colon = tested on: HCT-116 colon
RPMI-8226 leukemia = tested on: RPMI-8226 leukemia
SF-539 CNS = tested on: SF-539 CNS
SR leukemia = tested on: SR leukemia
UO-31 renal = tested on: UO-31 renal
BT-549 breast = tested on: BT-549 breast
HOP-92 NSCLC = tested on: HOP-92 NSCLC
MCF7 breast = tested on: MCF7 breast

Structure (SMILES)	TGI (A549 NSCLC)	TGI (CCRF-CEM leukemia)	TGI (HCT-116 colon)	TGI (RPMI-8226 leukemia)	TGI (SF-539 CNS)	TGI (SR leukemia)	TGI (UO-31 renal)	GI50 (A549 NSCLC)	GI50 (BT-549 breast)	TGI (BT-549 breast)	GI50 (HCT-116 colon)	GI50 (HOP-92 NSCLC)	TGI (HOP-92 NSCLC)	GI50 (MCF7 breast)	TGI (MCF7 breast)	GI50 (RPMI-8226 leukemia)	GI50 (SF-539 CNS)	GI50 (UO-31 renal)	GI50 (CCRF-CEM leukemia)	GI50 (SR leukemia)
COc1c(C(=O)c2ccc([N+](=O)[O-])cc2)cc(C(C)(C)C)cc1C(C)(C)C	> 100 µM	97.5 µM	62.9 µM	31.7 µM	> 100 µM	64.1 µM	> 100 µM													
CN(C)c1ccc(N=C2C=CC(=[N+](C)C)C=C2)cc1	> 100 µM		17.8 µM	11.4 µM	45.8 µM		47.6 µM	5.21 µM	4.15 µM	58.4 µM	4.04 µM	5.17 µM	74.4 µM	4.03 µM	17.6 µM	3.2 µM	11.7 µM	11.3 µM		
COc1cc(OC)c(/C=C\c2ccnc3ccccc23)c(OC)c1	18.6 µM	5.75 µM	13.3 µM	13 µM	12.4 µM	12.6 µM	3.55 µM						9.91 µM		21.4 µM					
Cc1ccc2ncnc(N(CC(C)C)CC(C)C)c2c1	25.3 µM	41.7 µM	27.7 µM	5.13 µM		26.3 µM	> 100 µM	9.43 µM				8.36 µM	24 µM	21.5 µM	> 100 µM	1.61 µM		22.2 µM	6.55 µM	7.76 µM
CCOC(=O)CSC(=O)NCCCl	> 100 µM	> 100 µM	> 100 µM	> 100 µM	> 100 µM	> 100 µM	> 100 µM						> 100 µM			> 100 µM			7.22 µM	> 100 µM
COc1ccc(C2CC(c3cc(C)ccc3O)=NC(N)=N2)cc1 (configuration not stated)	> 100 µM	> 100 µM	> 100 µM	> 100 µM	> 100 µM	> 100 µM	> 100 µM						> 100 µM							
CCOC(=O)C1C2CCC(C2)C1(CCl)C(=O)OCC (configuration not stated)	> 100 µM	> 100 µM	> 100 µM	> 100 µM		> 100 µM	> 100 µM						> 100 µM							
N#Cc1c2c(c(N=P(c3ccccc3)(c3ccccc3)c3ccccc3)n3c1nc1ccccc13)CCCC2	> 100 µM	57.7 µM	> 100 µM	61.6 µM	> 100 µM		79.4 µM													
CCCCCCCCCCCCCC(=O)OCC1OC(n2cc(F)c(=O)[nH]c2=O)C(NC(=O)OCc2ccccc2)C(OC(=O)CCCCCCCCCCCCC)C1O (configuration not stated)	> 100 µM	> 100 µM	> 100 µM	> 100 µM	> 100 µM	> 100 µM	> 100 µM						> 100 µM							
NS(=O)(=O)c1ccc(NC2=CC(=O)C(=O)c3ccccc32)cc1	> 100 µM	> 100 µM	> 100 µM	> 100 µM	> 100 µM	> 100 µM	> 100 µM						> 100 µM							
NNC(=O)CNC(=O)c1ccc(Cl)cc1Cl	> 100 µM	> 100 µM	> 100 µM	> 100 µM	> 100 µM		> 100 µM						> 100 µM							
